Test system: U2OS
Test: Incucyte cell viability with U2OS; further: filed as whole numbers so only -1 and 0 and 1 occur
Format: toxicity, cell-based
Details: human, 10 µM, compound concentration 10 uM
[1] = 0 h, replicate number 2, timepoint 0 hours
[2] = 12 h, replicate number 1, timepoint 12 hours
[3] = 18 h, replicate number 1, timepoint 18 hours
[4] = 24 h, replicate number 1, timepoint 24 hours
[5] = 24 h, replicate number 2, timepoint 24 hours
[6] = 6 h, replicate number 1, timepoint 6 hours
[7] = 0 h, replicate number 1, timepoint 0 hours
[8] = 6 h, replicate number 2, timepoint 6 hours
[9] = 12 h, replicate number 2, timepoint 12 hours
[10] = 18 h, replicate number 2, timepoint 18 hours

SMILES: O=C(NCCN1CCOCC1)c1ccc2c(c1)C(=O)c1ccc(Nc3ccc(F)c(NC(=O)c4ccccc4)c3)cc1CC2 [FS-694]
- Growth Rate [1]: 0
- Growth Rate [2]: 1
- Growth Rate [3]: 0
- Growth Rate [4]: 0
- Growth Rate [5]: 1

SMILES: CC[C@H](C)C(=O)O[C@H]1C[C@@H](C)C=C2C=C[C@H](C)[C@H](CC[C@@H]3C[C@@H](O)CC(=O)O3)[C@H]21 [LOVASTATIN]
- Growth Rate [6]: 0
- Growth Rate [2]: 0
- Growth Rate [3]: 0
- Growth Rate [4]: 0

SMILES: COc1ncc(-c2ccc3nccc(-c4ccnnc4)c3c2)cc1NS(=O)(=O)c1ccc(F)cc1F [OMIPALISIB]
- Growth Rate [7]: 1
- Growth Rate [6]: 1
- Growth Rate [2]: 1
- Growth Rate [3]: 0
- Growth Rate [4]: 0

SMILES: CN1CCN(c2ccc(OC(F)(F)F)c(Nc3ncc4c(n3)-c3c(c(C(N)=O)nn3CCO)CC4)c2)CC1 [ONVANSERTIB]
- Growth Rate [7]: 0
- Growth Rate [6]: 0
- Growth Rate [2]: 0
- Growth Rate [3]: 0
- Growth Rate [4]: 0

SMILES: CCN(CC)CCCCNc1ncc2cc(-c3cc(OC)cc(OC)c3)c(NC(=O)NC(C)(C)C)nc2n1 [PD-173074]
- Growth Rate [7]: 1
- Growth Rate [1]: 0
- Growth Rate [6]: 0
- Growth Rate [8]: 1
- Growth Rate [2]: 0
- Growth Rate [9]: 1
- Growth Rate [3]: 0
- Growth Rate [10]: 1
- Growth Rate [4]: 0

SMILES: Cc1nc(Nc2n[nH]c3c2CN(C(=O)N[C@H](CN(C)C)c2ccccc2)C3(C)C)c2sccc2n1 [PF-03758309]
- Growth Rate [7]: 1
- Growth Rate [6]: 0
- Growth Rate [2]: 0
- Growth Rate [3]: 0
- Growth Rate [4]: 0

SMILES: CN1CCN(CCOc2cc(OC3CCOCC3)c3c(Nc4c(Cl)ccc5c4OCO5)ncnc3c2)CC1 [SARACATINIB]
- Growth Rate [6]: 0
- Growth Rate [2]: 0
- Growth Rate [9]: 1
- Growth Rate [3]: 0
- Growth Rate [10]: 1
- Growth Rate [4]: 0
- Growth Rate [5]: 1

SMILES: Cc1nc(-c2ccc(-c3ccc(C(=O)N4CCc5cc6c(cc54)C4(CCN(C)CC4)CO6)cc3)c(C)c2)no1 [SB-224289]
- Growth Rate [1]: 0
- Growth Rate [8]: 1
- Growth Rate [9]: 1
- Growth Rate [3]: 1
- Growth Rate [4]: 1
- Growth Rate [5]: 0

SMILES: O=C1NCN(c2ccccc2)C12CCN(CCCOc1ccc(F)cc1)CC2 [SPIRAMIDE]
- Growth Rate [7]: 0
- Growth Rate [8]: 1
- Growth Rate [2]: 0
- Growth Rate [3]: 0
- Growth Rate [4]: 0

SMILES: Nc1c(C(=O)NCc2ccc(C(=O)NCCCC3CCCCC3)cc2)cnn1-c1ccccc1 [SR-318]
- Growth Rate [1]: 0
- Growth Rate [6]: 1
- Growth Rate [2]: 1
- Growth Rate [3]: 1
- Growth Rate [4]: 1

SMILES: O=C(NCCCC1CCCCC1)c1ccc(CNC(=O)c2cnn(-c3ccccc3)c2C(F)(F)F)cc1 [SR-321]
- Growth Rate [7]: 0
- Growth Rate [6]: 1
- Growth Rate [8]: 0
- Growth Rate [2]: 1
- Growth Rate [3]: 1
- Growth Rate [4]: 1

SMILES: Cc1nc(-c2cn3c(n2)-c2ccc(-c4cnn(C(C)(C)C(N)=O)c4)cc2OCC3)n(C(C)C)n1 [TASELISIB]
- Growth Rate [7]: 0
- Growth Rate [6]: 0
- Growth Rate [2]: 1
- Growth Rate [3]: 0
- Growth Rate [10]: 1
- Growth Rate [4]: 0

SMILES: COc1cccc([C@@H](C)NCCCc2ccccc2Cl)c1.Cl [TECALCET HYDROCHLORIDE]
- Growth Rate [7]: 0
- Growth Rate [8]: 0
- Growth Rate [2]: 1
- Growth Rate [3]: 1
- Growth Rate [4]: 1
- Growth Rate [5]: 0

SMILES: Cl.N#Cc1ccc2[nH]cc(CCCCN3CCN(c4ccc5oc(C(N)=O)cc5c4)CC3)c2c1 [VILAZODONE HYDROCHLORIDE]
- Growth Rate [7]: 0
- Growth Rate [8]: 1
- Growth Rate [2]: 1
- Growth Rate [9]: 0
- Growth Rate [3]: 0
- Growth Rate [4]: 0

From ChEMBL document CHEMBL4689842, “EUbOPEN Chemogenomics Library wave 1” (2021)
